From patent US20240116985A1, “STAPLED PEPTIDES AND METHODS THEREOF” (priority 2020, published 2024)
Read-outs that look alike come from different tables or passages of the source.

What was measured:
[1] = target: T1, beta-catenin/TCF4 engagement (Homo sapiens, UniProt P35222); assay: Nano-BRET target engagement assay (B-cat-Halo & TCF4-Luc in HEK293 cells); assay type: cell-based; conditions: read-out: NanoBRET Abs IC50
T1 construct: expressed in transfected cells; host or cells: HEK293
T1 sequence (P35222 1-781): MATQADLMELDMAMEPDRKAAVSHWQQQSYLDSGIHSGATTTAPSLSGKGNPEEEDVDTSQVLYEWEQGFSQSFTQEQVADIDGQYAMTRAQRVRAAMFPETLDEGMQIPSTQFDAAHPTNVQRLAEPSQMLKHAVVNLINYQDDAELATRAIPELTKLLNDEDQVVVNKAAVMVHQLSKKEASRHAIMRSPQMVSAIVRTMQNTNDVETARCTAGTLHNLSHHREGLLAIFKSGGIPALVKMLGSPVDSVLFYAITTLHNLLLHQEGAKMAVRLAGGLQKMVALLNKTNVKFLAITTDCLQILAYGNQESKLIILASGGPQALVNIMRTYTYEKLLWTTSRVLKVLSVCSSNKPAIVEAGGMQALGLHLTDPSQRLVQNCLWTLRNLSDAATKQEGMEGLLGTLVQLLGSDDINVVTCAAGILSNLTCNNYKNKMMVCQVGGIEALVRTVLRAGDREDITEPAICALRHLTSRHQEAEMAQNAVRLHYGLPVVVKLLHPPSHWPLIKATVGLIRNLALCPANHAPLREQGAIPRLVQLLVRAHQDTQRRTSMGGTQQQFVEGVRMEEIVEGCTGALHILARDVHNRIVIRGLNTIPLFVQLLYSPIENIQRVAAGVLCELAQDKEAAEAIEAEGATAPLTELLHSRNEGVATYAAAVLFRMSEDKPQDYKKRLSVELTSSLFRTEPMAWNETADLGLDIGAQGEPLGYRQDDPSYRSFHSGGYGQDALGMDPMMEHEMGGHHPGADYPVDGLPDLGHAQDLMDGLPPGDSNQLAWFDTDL

[2] = target: T2, full-length beta-Catenin (Uniprot ID P35222) (Homo sapiens, UniProt P35222); assay: Fluorescence polarization IC50 (beta-catenin / 5FAM-TCF4 10-53 competition); assay type: binding; conditions: fluorescence polarization
T2 construct: 10 nM full-length beta-Catenin (Uniprot ID P35222)
T2 sequence (P35222 1-781): T1 sequence (P35222 1-781)

SMILES	IC50 ([1]; absolute IC50)	IC50 ([2]; read-out: beta-Catenin FP IC50)	IC50 [1]	IC50 ([2]; beta-catenin, read-out: FP EC50)
CC(=O)N1CCC[C@]12CC=CCCCC1(CCCC=CCCCOC(=O)N3CC[C@@](C(=O)N[C@@H](Cc4ccsc4)C(=O)N[C@@H](Cc4csc5ccccc45)C(=O)N[C@@H](CCC(N)=O)C(N)=O)(C3)NC(=O)[C@H](CC(C)C)NC(=O)[C@H](Cc3ccccc3)NC(=O)[C@H](C)NC(=O)[C@H](C)NC(=O)[C@H](CNc3ccc([N+](=O)[O-])cc3C(=O)O)NC(=O)[C@H](CC(=O)O)NC1=O)NC(=O)[C@H](CC(C)(C)C)NC(=O)[C@H](CC(=O)O)NC2=O (stereo partly drawn) [I-1843, Ac-PL3-Asp-Npg-B5-Asp-[2COOH4NO2Ph]Dap-Ala-Ala-Phe-Leu-PyrS2-3Thi-BztA-Gln-NH2]	9500 nM	32 nM	–	–
CC(=O)N1CCC[C@]12CC=CCCCC1(CCCC=CCCCOC(=O)N3CC[C@@](C(=O)N[C@@H](Cc4ccsc4)C(=O)N[C@@H](Cc4csc5ccccc45)C(=O)N[C@@H](CCC(N)=O)C(N)=O)(C3)NC(=O)[C@H](CC(N)=O)NC(=O)[C@H](Cc3ccccc3)NC(=O)[C@H](C)NC(=O)[C@H](C)NC(=O)[C@H](CCCNC(=N)N)NC(=O)[C@H](CC(=O)O)NC1=O)NC(=O)[C@H](CC(C)(C)C)NC(=O)[C@H](CC(=O)O)NC2=O (stereo partly drawn) [I-1890, Ac-PL3-Asp-Npg-B5-Asp-Arg-Ala-Ala-Phe-Asn-PyrS2-3Thi-BztA-Gln-NH2]	–	31 nM	> 20000 nM	–
CC(=O)N1CCC[C@]12CC=CCCCC1(CCCC=CCCCCCC[C@@](C)(C(=O)N[C@@H](Cc3ccccc3C(F)(F)F)C(=O)N[C@@H](Cc3csc4ccccc34)C(=O)N[C@@H](CCC(N)=O)C(N)=O)NC(=O)[C@H](CC(N)=O)NC(=O)[C@H](Cc3ccccc3)NC(=O)[C@H](C)NC(=O)[C@H](C)NC(=O)[C@H](CC(=O)O)NC(=O)[C@H](CC(=O)O)NC1=O)NC(=O)[C@H](CC(C)(C)C)NC(=O)[C@H](CC(=O)O)NC2=O (stereo partly drawn) [I-1396, Ac-PL3-Asp-Npg-B5-Asp-Asp-Ala-Ala-Phe-Asn-S8-2F3MeF-BztA-Gln-NH2]	15300 nM	33 nM	–	–
CC(=O)N1CCC[C@]12CC=CCCCC1(CCCC=CCCCOC(=O)N3CC[C@@](C(=O)N[C@@H](Cc4ccccc4Cl)C(=O)N[C@@H](Cc4csc5ccccc45)C(=O)N[C@@H](CCC(N)=O)C(N)=O)(C3)NC(=O)[C@H](CC(C)C)NC(=O)[C@H](Cc3ccccc3)NC(=O)[C@H](C)NC(=O)[C@H](C)NC(=O)[C@H](Cc3ccc(F)c(C(=O)O)c3)NC(=O)[C@H](CC(=O)O)NC1=O)NC(=O)[C@H](CC(C)(C)C)NC(=O)[C@H](CC(=O)O)NC2=O (stereo partly drawn) [I-2204, Ac-PL3-Asp-Npg-B5-Asp-4F3COOHF-Ala-Ala-Phe-Leu-PyrS2-2C1F-BztA-Gln-NH2]	–	10 nM	3300 nM	–
CC(=O)N1CCC[C@]12CCCCCCC1(CCCCCCCCOC(=O)N3CC[C@@](C(=O)N[C@@H](Cc4ccsc4)C(=O)N[C@@H](Cc4csc5ccccc45)C(=O)N[C@@H](Cc4ccccc4)C(N)=O)(C3)NC(=O)[C@H]([C@@H](C)O)NC(=O)[C@H](Cc3ccccc3)NC(=O)[C@H](C)NC(=O)[C@H](CCCCNC(C)C)NC(=O)[C@H](CN(CC(=O)O)CC(F)(F)F)NC(=O)[C@H](CC(=O)O)NC1=O)NC(=O)[C@H](CC(C)(C)C)NC(=O)[C@H](CC(=O)O)NC2=O (stereo partly drawn) [I-1768, Ac-PL3-Asp-Npg-B5-Asp-TfeGA-iPrLys-Ala-Phe-Thr-PyrS2-3Thi-BztA-Phe-NH2]	> 20000 nM	69 nM	–	–
CC(=O)N1CCC[C@]12CC=CCCCC1(CCCC=CCCCOC(=O)N3CC[C@@](C(=O)N[C@@H](Cc4ccsc4)C(=O)N[C@@H](Cc4csc5ccccc45)C(=O)N[C@@H](C)C(N)=O)(C3)NC(=O)[C@H](CC(C)C)NC(=O)[C@H](Cc3ccccc3)NC(=O)[C@H](C)NC(=O)[C@H](CC(=O)N(C)C)NC(=O)[C@H](Cc3cccc(C(=O)O)c3)NC(=O)[C@H](CC(=O)O)NC1=O)NC(=O)[C@H](CC(C)(C)C)NC(=O)[C@H](CC(=O)O)NC2=O (stereo partly drawn) [I-2188, Ac-PL3-Asp-Npg-B5-Asp-3COOHF-Me2Asn-Ala-Phe-Leu-PyrS2-3Thi-BztA-Ala-NH2]	–	11 nM	7600 nM	–
CC(=O)N1CCC[C@]12CC=CCCCC1(CCCC=CCCCCCC[C@@](C)(C(=O)N[C@@H](Cc3ccsc3)C(=O)N[C@@H](Cc3csc4ccccc34)C(=O)N[C@@H](CCC(N)=O)C(N)=O)NC(=O)[C@H](CC(N)=O)NC(=O)[C@H](Cc3ccccc3)NC(=O)[C@H](C)NC(=O)[C@H](C)NC(=O)[C@H](CN(CCCC(F)(F)F)CC(=O)O)NC(=O)[C@H](CC(=O)O)NC1=O)NC(=O)[C@H](CC(C)(C)C)NC(=O)[C@H](CC(=O)O)NC2=O (stereo partly drawn) [I-1455, Ac-PL3-Asp-Npg-B5-Asp-[Tfb]GA-Ala-Ala-Phe-Asn-S8-3Thi-BztA-Gln-NH2]	23100 nM	13 nM	–	13 nM
CC(=O)N1CCC[C@]12CC=CCCCC1(CCCC=CCCCOC(=O)N3CC[C@@](C(=O)N[C@@H](Cc4ccccc4C(F)(F)F)C(=O)N[C@@H](Cc4csc5ccccc45)C(=O)N[C@@H](C)C(N)=O)(C3)NC(=O)[C@H](CC(C)C)NC(=O)[C@H](Cc3ccccc3)NC(=O)[C@H](C)NC(=O)[C@H](CCC(N)=O)NC(=O)[C@H](Cn3cc(CCC(=O)O)nn3)NC(=O)[C@H](CC(=O)O)NC1=O)NC(=O)[C@H](CC(C)(C)C)NC(=O)[C@H](CC(=O)O)NC2=O (stereo partly drawn) [I-2367, Ac-PL3-Asp-Npg-B5-Asp-[CH2CH2CO2H]TriAzDap-Gln-Ala-Phe-Leu-PyrS2-2F3MeF-BztA-Ala-NH2]	6200 nM	7 nM	–	–
C#CC(=O)N1CCC[C@]12CC=CCCCC1(CCCC=CCCCOC(=O)N3CC[C@@](C(=O)N[C@@H](Cc4ccccc4Cl)C(=O)N[C@@H](Cc4csc5ccccc45)C(=O)N[C@@H](C)C(N)=O)(C3)NC(=O)[C@H](CC(C)C)NC(=O)[C@H](Cc3ccccc3)NC(=O)[C@H](C)NC(=O)[C@H](C)NC(=O)[C@H](Cc3cccc(C(=O)O)c3)NC(=O)[C@H](CC(=O)O)NC1=O)NC(=O)[C@H](CC(C)(C)C)NC(=O)[C@H](CC(=O)O)NC2=O (stereo partly drawn) [I-2403, PropynOH-PL3-Asp-Npg-B5-Asp-3COOHF-Ala-Ala-Phe-Leu-PyrS2-2C1F-BztA-Ala-NH2]	> 20000 nM	12 nM	–	–
CCCCCCSSCCOC(=O)C[C@@H]1NC(=O)C2(CCCC=CCCCOC(=O)N3CC[C@@](C(=O)N[C@@H](Cc4ccsc4)C(=O)N[C@@H](Cc4csc5ccccc45)C(=O)N[C@@H](CCC(N)=O)C(N)=O)(C3)NC(=O)[C@H](CC(C)C)NC(=O)[C@H](Cc3ccccc3)NC(=O)[C@H](C)NC(=O)[C@H](C)NC(=O)[C@H](CC(=O)O)NC1=O)CCCC=CC[C@]1(CCCN1C(C)=O)C(=O)N[C@@H](CC(=O)O)C(=O)N[C@@H](CC(C)(C)C)C(=O)N2 (stereo partly drawn) [I-1961, Ac-PL3-Asp-Npg-B5-[EtSSHex]AspE-Asp-Ala-Ala-Phe-Leu-PyrS2-3Thi-BztA-Gln-NH2]	–	2100 nM	> 20000 nM	–
CCCC[C@@H]1NC(=O)[C@H](CC(=O)O)NC(=O)[C@]2(CC=CCCCC3(CCCC=CCCCCCC[C@@](C)(C(=O)N[C@@H](Cc4ccccc4)C(=O)N[C@@H](Cc4csc5ccccc45)C(=O)N[C@@H](CCC(N)=O)C(N)=O)NC(=O)[C@H](CCO)NC(=O)[C@H](Cc4ccccc4)NC(=O)[C@H](C)NC(=O)[C@H](C)NC(=O)[C@H](CCC(=O)O)NC(=O)[C@H](CC(=O)O)NC3=O)NC1=O)CCCN2C(C)=O (stereo partly drawn) [I-1525, Ac-PL3-Asp-nLeu-B5-Asp-Glu-Ala-Ala-Phe-Hse-S8-Phe-BztA-Gln-NH2]	10800 nM	22 nM	–	–
CC(=O)N1CCC[C@]12CC=CCCCC1(CCCC=CCCCOC(=O)N3CC[C@@](C(=O)N[C@@H](Cc4ccsc4)C(=O)N[C@@H](Cc4csc5ccccc45)C(=O)N[C@@H](CCC(N)=O)C(N)=O)(C3)NC(=O)[C@H](CC(C)C)NC(=O)[C@H](Cc3ccccc3)NC(=O)[C@H](C)NC(=O)[C@H](C)NC(=O)[C@H](Cc3cn(CC(=O)O)c4ccccc34)NC(=O)[C@H](CC(=O)O)NC1=O)NC(=O)[C@H](CC(C)(C)C)NC(=O)[C@H](CC(=O)O)NC2=O (stereo partly drawn) [I-1445, Ac-PL3-Asp-Npg-B5-Asp-1AcAW-Ala-Ala-Phe-Leu-PyrS2-3Thi-BztA-Gln-NH2]	11100 nM	13 nM	–	–
CC(=O)N1CCC[C@]12CC=CCCCC1(CCCC=CCCCOC(=O)N3CC[C@@](C(=O)N[C@@H](Cc4ccsc4)C(=O)N[C@@H](Cc4csc5ccccc45)C(=O)N[C@@H](CCC(N)=O)C(N)=O)(C3)NC(=O)[C@H](Cn3cc(CN(C)C)nn3)NC(=O)[C@H](Cc3ccccc3)NC(=O)[C@H](C)NC(=O)[C@H](C)NC(=O)[C@H](CN(CC(=O)O)CC(F)(F)F)NC(=O)[C@H](CC(=O)O)NC1=O)NC(=O)[C@H](CC(C)(C)C)NC(=O)[C@H](CC(=O)O)NC2=O (stereo partly drawn) [I-1861, Ac-PL3-Asp-Npg-B5-Asp-TfeGA-Ala-Ala-Phe-[CH2NMe2]TriAzDap-PyrS2-3Thi-BztA-Gln-NH2]	–	14 nM	37300 nM	–
